# Assay results reported in US20240116856A1 (Young BioPharma, LLC, priority 2020, published 2024).
# Values joined by “and” are separate entries in the source; they are usually repeats but may differ in a detail not shown here. Equal entries are not always repeated. Where two headings read alike, the source gives them in different places.
# What was measured:
# [1] = molecular target: T1, human TRPV3 (Homo sapiens, UniProt Q8NET8); assay: In vitro Ca2+ flux counter-screen in human TRPV3 overexpressing cells; type: cell-based
# T1 construct: expressed in transfected cells; host or cells: overexpressing cells
# T1 sequence (Q8NET8 1-790): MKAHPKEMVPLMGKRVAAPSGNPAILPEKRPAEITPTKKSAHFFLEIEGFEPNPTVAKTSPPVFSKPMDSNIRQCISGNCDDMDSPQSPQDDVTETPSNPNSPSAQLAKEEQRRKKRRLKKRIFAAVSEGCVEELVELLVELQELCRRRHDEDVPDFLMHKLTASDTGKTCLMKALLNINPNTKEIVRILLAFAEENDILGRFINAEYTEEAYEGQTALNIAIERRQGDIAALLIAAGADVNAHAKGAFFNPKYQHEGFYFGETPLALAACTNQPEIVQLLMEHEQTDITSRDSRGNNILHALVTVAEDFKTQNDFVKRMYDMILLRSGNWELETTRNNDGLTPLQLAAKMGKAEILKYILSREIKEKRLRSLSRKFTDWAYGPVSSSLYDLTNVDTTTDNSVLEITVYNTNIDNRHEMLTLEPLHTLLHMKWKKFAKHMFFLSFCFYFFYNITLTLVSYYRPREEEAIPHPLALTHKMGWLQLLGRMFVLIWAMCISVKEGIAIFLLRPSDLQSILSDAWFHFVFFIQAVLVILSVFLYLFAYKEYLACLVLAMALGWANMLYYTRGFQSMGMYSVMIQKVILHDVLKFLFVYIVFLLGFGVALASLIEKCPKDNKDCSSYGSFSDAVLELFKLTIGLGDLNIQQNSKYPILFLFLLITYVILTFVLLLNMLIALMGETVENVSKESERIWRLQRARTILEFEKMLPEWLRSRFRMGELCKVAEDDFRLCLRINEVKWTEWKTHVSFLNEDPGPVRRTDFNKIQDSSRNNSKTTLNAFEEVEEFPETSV
# [2] = molecular target: T2, human TRPA1 (Homo sapiens, UniProt O75762); assay: In vitro Ca2+ flux counter-screen in human TRPA1 overexpressing cells; type: cell-based
# T2 construct: expressed in transfected cells; host or cells: overexpressing cells
# T2 sequence (O75762 whole entry): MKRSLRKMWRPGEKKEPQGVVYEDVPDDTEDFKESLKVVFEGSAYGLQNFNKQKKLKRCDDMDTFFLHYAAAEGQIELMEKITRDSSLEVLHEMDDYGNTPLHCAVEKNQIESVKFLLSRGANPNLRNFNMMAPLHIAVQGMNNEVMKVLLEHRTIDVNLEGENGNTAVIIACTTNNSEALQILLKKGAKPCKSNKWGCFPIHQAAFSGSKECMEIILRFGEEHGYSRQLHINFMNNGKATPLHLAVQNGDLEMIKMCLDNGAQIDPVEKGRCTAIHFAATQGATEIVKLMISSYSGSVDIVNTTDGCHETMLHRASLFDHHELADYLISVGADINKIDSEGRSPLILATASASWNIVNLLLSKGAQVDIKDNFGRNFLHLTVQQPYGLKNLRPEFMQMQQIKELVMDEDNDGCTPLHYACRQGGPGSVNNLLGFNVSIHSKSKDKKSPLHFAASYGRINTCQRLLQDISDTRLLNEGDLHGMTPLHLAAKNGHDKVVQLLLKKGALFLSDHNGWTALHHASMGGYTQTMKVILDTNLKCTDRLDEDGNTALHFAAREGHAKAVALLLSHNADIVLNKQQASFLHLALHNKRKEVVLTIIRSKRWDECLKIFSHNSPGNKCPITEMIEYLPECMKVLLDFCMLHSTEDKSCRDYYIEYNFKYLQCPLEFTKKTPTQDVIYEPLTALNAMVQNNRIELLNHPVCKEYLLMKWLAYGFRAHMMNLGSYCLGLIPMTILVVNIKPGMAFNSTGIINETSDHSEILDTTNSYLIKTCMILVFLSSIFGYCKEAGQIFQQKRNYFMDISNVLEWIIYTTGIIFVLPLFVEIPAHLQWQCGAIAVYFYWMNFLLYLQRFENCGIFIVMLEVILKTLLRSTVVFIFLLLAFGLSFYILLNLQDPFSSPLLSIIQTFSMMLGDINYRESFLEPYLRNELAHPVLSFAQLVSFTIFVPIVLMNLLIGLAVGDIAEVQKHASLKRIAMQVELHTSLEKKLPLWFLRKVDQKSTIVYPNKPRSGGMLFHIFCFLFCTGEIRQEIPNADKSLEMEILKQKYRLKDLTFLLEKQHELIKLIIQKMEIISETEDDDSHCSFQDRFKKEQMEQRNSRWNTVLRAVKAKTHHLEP
# [3] = tested on: MDA-MB-231; assay: Human cancer cell growth inhibition assay (ATP assay), MDA-MB-231; type: cell-based; conditions: Homo sapiens, MDA-MB-231, 96 h
# [4] = tested on: NCI-H460; assay: Human cancer cell growth inhibition assay (ATP assay), NCI-H460; type: cell-based; conditions: Homo sapiens, NCI-H460, 96 h
# [5] = tested on: OVCAR-8; assay: Human cancer cell growth inhibition assay (ATP assay), OVCAR-8; type: cell-based; conditions: Homo sapiens, OVCAR-8, 96 h
# [6] = tested on: MDA-MB-231 cell invasion; assay: Cancer cell invasion assay, MDA-MB-231; type: cell-based, human; conditions: 24 h
# Procedure: A cancer cell invasion assay was developed based on literature protocols (Methods 2005, 37, 208; EMBO J 2002, 21, 6289; Cellular Signalling 2012, 24, 1276.). Membrane matrix gel (Cat #A1413201, ThermoFisher) was diluted in ice-cold, serum-free RPMI 1640 Medium (Cat #31800022, ThermoFisher) at a concentration of 0.5-0.6 mg/mL. Then it was added to the upper compartment (100 μL per cup) of millicell inserts (Cat #PI8P01250, ThermoFisher) placed in a 24-well plate (Part no. 229123, Celltreat). The plate was incubated at 37° C. for 2 h to allow the liquid gel to solidify. RPMI 1640 Medium supplemented with 10% FBS (300 μL) was added to the well of the plate (lower compartment) as attractant, then DMSO or compounds were added. Human cancer cells (1×10^5 cells in 200 μL of RPMI 1640 Medium) were added to the upper compartment of the insert, then DMSO or compounds were added. After the plate was incubated at 37° C. for 24 h, the cells were fixed on the lower side of the insert membrane with 4% formaldehyde and stained with 1% crystal violet (Part no. IS12146, Innovating Science). The invaded cells on the lower side of the filter were counted under an inverted microscope equipped with either a 4× or a 10× objective (FIG. 11). The cell numbers from 5 random views were averaged and plotted as percentage against the DMSO control (FIG. 12A).
# [7] = molecular target: T3, human TRPV1 (Homo sapiens, UniProt Q8NER1); assay: In vitro Ca2+ flux assay in human TRPV1 transfected HEK 293 cells; type: cell-based; conditions: Means±SEM from three independent experiments
# T3 construct: DYK (FLAG) tag from vector pcDNA3.1+/C-(K)DYK (C); host or cells: FreeStyle 293-F cells (HEK 293), transient transfection
# T3 sequence (Q8NER1 whole entry): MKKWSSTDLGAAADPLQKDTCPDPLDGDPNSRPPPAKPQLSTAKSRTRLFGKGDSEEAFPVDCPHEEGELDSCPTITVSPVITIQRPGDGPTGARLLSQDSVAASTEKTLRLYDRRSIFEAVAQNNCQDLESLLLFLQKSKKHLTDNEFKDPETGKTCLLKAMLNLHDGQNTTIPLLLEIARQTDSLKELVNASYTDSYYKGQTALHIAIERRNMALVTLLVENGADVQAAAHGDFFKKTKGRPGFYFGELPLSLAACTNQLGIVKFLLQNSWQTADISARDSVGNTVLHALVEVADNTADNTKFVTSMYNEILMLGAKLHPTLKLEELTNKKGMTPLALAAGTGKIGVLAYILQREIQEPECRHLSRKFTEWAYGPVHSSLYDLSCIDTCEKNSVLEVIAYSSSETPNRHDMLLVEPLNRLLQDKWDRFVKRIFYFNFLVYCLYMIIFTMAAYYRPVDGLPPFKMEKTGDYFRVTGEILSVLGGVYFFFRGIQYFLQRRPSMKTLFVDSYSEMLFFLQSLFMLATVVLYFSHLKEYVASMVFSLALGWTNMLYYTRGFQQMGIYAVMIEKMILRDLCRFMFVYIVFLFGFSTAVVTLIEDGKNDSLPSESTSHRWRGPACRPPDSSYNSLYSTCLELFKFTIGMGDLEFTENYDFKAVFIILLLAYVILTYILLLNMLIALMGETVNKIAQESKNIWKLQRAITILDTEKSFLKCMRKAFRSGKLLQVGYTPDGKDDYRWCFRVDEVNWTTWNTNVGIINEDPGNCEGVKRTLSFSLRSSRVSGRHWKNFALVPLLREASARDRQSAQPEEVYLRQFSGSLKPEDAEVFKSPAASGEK
# [8] = tested on: Src protein activation in MDA-MB-231 cells; assay: Cancer cell immunocytochemistry assay, Phospho-Src (Y416), MDA-MB-231; type: cell-based, human; conditions: at about 40% of IC50 concentration from cell growth inhibition assay, 4 h
# Procedure: Human cancer cells (15,000 cells/well) in 96 well half area microplate (Cat #3882, Corning) were incubated overnight at 37° C., then compounds or DMSO control were added to the cell culture and incubated at 37° C. for 1-6 h. The cells were sequentially fixed with 4% formalin, permeabilized with 0.5% Triton X-100, blocked with 5% BSA in PBS, incubated with Human Phospho-Src (Y416) Antibody (Cat #MAB2685, R&D Systems) at rt for 2 h, incubated with the secondary antibody Goat Ant-Rabbit IgG H&L (Alexa Fluor 488) (Cat #ab150077, abeam) for 45 min, and incubated with DAPI (Cat #D9542, Sigma-Aldrich) for 5 min. Finally, the cells were washed and covered with PBS. The cell images were visualized on an inverted fluorescence microscope (Leica DMIL Fluorescent Inverted Microscope with Digital Camera, Leica Microsystems). Pictures were taken [FIGS. 14A-C. Green: Human Phospho-Src (Y416), the activated form of the Src protein; Blue: DAPI (stain nucleus of cell)]. The fluorescence intensity values from 5 random cells were averaged, subtracted by the background value (area between cells) and the blank value [the blank control without the Human Phospho-Src (Y416) Antibody], then plotted as percentage against the DMSO control to indicate the effects of compound treatment on the cellular Src kinase phosphorylation levels in the cancer cells (FIGS. 15A-D).
# [9] = counter-screen, read-out: TRPV3 EC50
# [10] = counter-screen, read-out: TRPA1 EC50
# [11] = 4 days, Means±SEM from three independent experiments, read-out: MDA-MB-231, IC50
# [12] = 4 days, Means±SEM from three independent experiments, read-out: NCl-H460, IC50
# [13] = 4 days, Means±SEM from three independent experiments, read-out: OVCAR-8, IC50
SMILES,"EC50 [1, 9] [µM]","EC50 [2, 10] [µM]","IC50 [3, 11] [µM]","IC50 [4, 12] [µM]","IC50 [5, 13] [µM]",EC50 ([7]; read-out: TRPV1 EC50),inhibition of MDA-MB-231 cell invasion [6],"IC50 ([3]; read-out: MDA-MB-231, IC50, μM) [µM]","IC50 ([4]; read-out: NCl-H460, IC50, μM) [µM]","IC50 ([5]; read-out: OVCAR-8, IC50, μM) [µM]",cellular Src kinase phosphorylation levels [8],EC50 ([7]; TRPV1 EC50 (μM)) [µM],EC50 [1] [µM],EC50 [2] [µM]
COc1cc(CC2=NCC(c3ccccc3)O2)ccc1O (stereo not shown) [YB-3],> 10,> 10,430 ± 90,320 ± 86,500 ± 120,–,dose-dependently inhibited,–,–,–,–,–,–,–
COc1cc(CC2=NCC(c3ccc(C(F)(F)F)cc3)O2)ccc1O (stereo not shown) [YB-4],> 10,> 10,469 ± 130,270 ± 45,300 ± 60,–,dose-dependently inhibited,–,–,–,–,–,–,–
COc1cc(CC2=NCC(c3ccc(-c4ccccc4)cc3)O2)ccc1O (stereo not shown) [YB-5],> 10,> 10,542 ± 101,210 ± 48,150 ± 42,–,dose-dependently inhibited,–,–,–,–,–,–,–
COc1cc(CNC(=O)CCCC/C=C/C(C)C)ccc1NS(C)(=O)=O [YB-6],> 10,> 10,867 ± 72,400 ± 46,400 ± 51,–,dose-dependently inhibited,–,–,–,–,–,–,–
COc1cc(CNC(=O)CCCC/C=C/C(C)C)ccc1N(S(C)(=O)=O)S(C)(=O)=O [YB-7],> 10,> 10,386 ± 107,200 ± 49,310 ± 45,–,dose-dependently inhibited,–,–,–,–,–,–,–
CNc1ccc(CNC(=O)CCCC/C=C/C(C)C)cc1OC [YB-8],> 10,> 10,311 ± 31,250 ± 23,500 ± 81,–,dose-dependently inhibited,–,–,–,–,–,–,–
COc1cc(CC(=O)N/C=C/c2ccc(Cl)cc2)ccc1O [YB-10],> 10,> 10,115 ± 28,73 ± 18,34,< 0.1 µM and 0.012 to 0.048 µM,dose-dependently inhibited,–,–,–,–,–,–,–
COc1cc(CC(=O)N/C=C/c2ccc(-c3ccccc3)cc2)ccc1O [YB-12],> 10,> 10,136 ± 29,61 ± 21,129 ± 20,–,dose-dependently inhibited,–,–,–,–,–,–,–
COCCOCCOCCC(=O)Nc1ccc(CNC(=O)CCCC/C=C/C(C)C)cc1OC [YB-13],> 10,> 10,107 ± 7.5,100 ± 11,200 ± 16,–,dose-dependently inhibited,–,–,–,–,–,–,–
COc1ccc(/C=C/NC(=O)Cc2ccc(O)c(OC)c2)cc1 [YB-14],> 10,> 10,300 ± 46,> 300,500 ± 57,–,–,–,–,–,–,–,–,–
COc1cc(CC(=O)N/C=C/c2cccc(C(F)(F)F)c2)ccc1O [YB-15],> 10,> 10,250 ± 38,> 300,101 ± 17,< 0.1 µM and 0.012 to 0.048 µM,–,–,–,–,–,–,–,–
COc1cc(CC(=O)N/C=C/c2ccc(C(F)(F)F)cc2)ccc1N [YB-17],> 10,> 10,–,–,–,0.34 to 1.1 µM,–,140 ± 22,139 ± 19,161 ± 26,–,–,–,–
COc1cc(CC(=O)N/C=C/c2ccc(C(F)(F)F)cc2)ccc1OC(=O)N1CCCCC1CN(C)C(=O)OC(C)(C)C (stereo not shown) [YB-31],–,–,–,–,–,–,–,–,–,–,–,> 10,> 10,> 10
CNCC1CCCCN1C(=O)Oc1ccc(CC(=O)N/C=C/c2ccc(C(F)(F)F)cc2)cc1OC (stereo not shown) [YB-35],–,–,–,–,–,–,–,–,–,–,–,0.71 ± 0.14,> 10,> 10

# Continued, in another order:
"EC50 [1, 9] [µM]","EC50 [2, 10] [µM]","IC50 [3, 11] [µM]","IC50 [4, 12] [µM]","IC50 [5, 13] [µM]",EC50 ([7]; read-out: TRPV1 EC50),SMILES,inhibition of MDA-MB-231 cell invasion [6],"IC50 ([3]; read-out: MDA-MB-231, IC50, μM) [µM]","IC50 ([4]; read-out: NCl-H460, IC50, μM) [µM]","IC50 ([5]; read-out: OVCAR-8, IC50, μM) [µM]",cellular Src kinase phosphorylation levels [8],EC50 ([7]; TRPV1 EC50 (μM)) [µM],EC50 [1] [µM],EC50 [2] [µM]
> 10,> 10,69 ± 16,133 ± 18,200 ± 21,0.34 to 1.1 µM,COc1cc(CC(=O)N/C=C/c2ccc(Cl)cc2)ccc1N [YB-18],–,–,–,–,–,–,–,–
> 10,> 10,103 ± 18,117 ± 16,100 ± 15,–,COc1cc(CC(=O)N/C=C/c2ccc(-c3ccccc3)cc2)ccc1N [YB-19],–,–,–,–,–,–,–,–
> 10,> 10,86 ± 14,279 ± 42,283 ± 38,–,COc1ccc(/C=C/NC(=O)Cc2ccc(N)c(OC)c2)cc1 [YB-20],–,–,–,–,–,–,–,–
> 10,> 10,101 ± 20,103 ± 13,65 ± 14,0.34 to 1.1 µM,COc1cc(CC(=O)N/C=C/c2cccc(C(F)(F)F)c2)ccc1N [YB-21],dose-dependently inhibited,–,–,–,–,–,–,–
> 10,> 10,74,84 ± 12,58,–,COc1cc(CC(=O)N/C=C/c2cc(C(F)(F)F)cc(C(F)(F)F)c2)ccc1O [YB-22],dose-dependently inhibited,–,–,–,significantly reduced the cellular Src kinase phosphorylation levels,–,–,–
> 10,> 10,90 ± 12,88,73,–,COc1cc(CC(=O)N/C=C/c2ccc(C#N)cc2)ccc1O [YB-23],dose-dependently inhibited,–,–,–,significantly reduced the cellular Src kinase phosphorylation levels,–,–,–
> 10,> 10,–,–,–,> 10 µM,COc1cc(CC(=O)N/C=C/c2ccc(C(F)(F)F)cc2)ccc1NC(=O)CCCC/C=C/C(C)C [YB-29],–,–,–,–,–,–,–,–
> 10,> 10,–,–,–,8.8 ± 0.9 µM,COc1cc(CC(=O)N/C=C/c2ccc(C(F)(F)F)cc2)ccc1NC(C)=O [YB-30],–,–,–,–,–,–,–,–
